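The compound was tested at five concentrations on cells cultured in 96-well plates, with a 48-hour exposure period. Abbreviation: GI50, concentration required for 50% inhibition of growth. TGI marks complete inhibition of growth.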
How the values were obtained:
Experiment in all cases: NCI anticancer screen, dose series, 48 h
[1] = test system: OVCAR-3 ovarian
[2] = test system: UO-31 renal
[3] = test system: NCI-H23 lung
[4] = test system: SK-OV-3 ovarian
[5] = test system: OVCAR-5 ovarian
[6] = test system: COLO 205 colon
[7] = test system: PC-3 prostate
[8] = test system: MDA-MB-435
[9] = test system: CAKI-1 renal
[10] = test system: U251 CNS

COc1cccc(N2C(=O)CS(=O)(=O)C2c2cccc(Oc3ccccc3)c2)c1 (stereo not given)
TGI [1]: > 100 µM | TGI [2]: > 100 µM | TGI [3]: > 100 µM | TGI [4]: > 100 µM | TGI [5]: > 100 µM | TGI [6]: 42.4 µM | TGI [7]: 85.8 µM | TGI [8]: > 100 µM | TGI [9]: > 100 µM | TGI [10]: 49.7 µM

COc1cc2c3cc1Oc1c(OC)c(OC)cc4c1C(Cc1ccc(O)c(c1)Oc1ccc(cc1)CC3N(C)CC2)CN(C)C4 (stereo not given)
TGI [1]: 30.9 µM | TGI [2]: 29.8 µM | TGI [3]: 34.9 µM | TGI [4]: 47.9 µM | TGI [5]: 44.8 µM | TGI [6]: 21.6 µM | TGI [7]: > 100 µM | TGI [8]: 23.7 µM | TGI [9]: 44.3 µM | TGI [10]: 24.7 µM

O=C1/C(=C/c2ccncc2)C(n2cccc2)c2c(Br)sc(Br)c21 (stereo not given)
TGI [1]: 3.38 µM | TGI [2]: 5.42 µM | TGI [3]: 11.6 µM | TGI [4]: 20.7 µM | TGI [5]: 29.2 µM | TGI [6]: 28.6 µM | TGI [7]: 16.1 µM | TGI [8]: 4.66 µM | TGI [9]: 10.9 µM | TGI [10]: 4.86 µM

O=C(O)C1=NN(c2ccc(S(=O)(=O)O)cc2)C2(C1)C(Cl)C(=O)N2c1nc2ccccc2s1 (stereo not given)
TGI [1]: 33.8 µM | TGI [2]: 22.9 µM | TGI [3]: 30.2 µM | TGI [4]: 30.6 µM | TGI [5]: 32.8 µM | TGI [6]: 35.1 µM | TGI [7]: 31.2 µM | TGI [8]: 32.6 µM | TGI [9]: 31.5 µM | TGI [10]: 32.1 µM

CC1CCc2sc3nc4n(c(=O)c3c2C1)CC(C)S4 (stereo not given)
TGI [1]: 36.7 µM | TGI [2]: 7.51 µM | TGI [3]: > 100 µM | TGI [4]: 96.3 µM | TGI [5]: 92.7 µM | TGI [6]: 39.3 µM | TGI [7]: 62.9 µM | TGI [8]: > 100 µM | TGI [9]: > 100 µM | TGI [10]: > 100 µM

CC(=O)OCC(=O)O[C@@H]1[C@H]2[C@@H](OC(=O)c3ccccc3)[C@@H](C)C[C@]2(O)[C@H](OC(C)=O)[C@@]2(C)C[C@]1(OC(C)=O)C[C@H]1C(=O)C(C)(C)[C@@H](OC(C)=O)[C@@H]12
TGI [1]: > 25 µM | TGI [2]: > 6.83 µM | TGI [3]: > 25 µM | TGI [4]: > 25 µM | TGI [5]: > 15.7 µM | TGI [6]: > 25 µM | TGI [7]: > 25 µM | TGI [8]: > 25 µM | TGI [9]: > 25 µM | TGI [10]: > 25 µM

CNC(=S)NNc1ncnc2c1c(-c1ccc(Cl)cc1)cn2-c1ccc(C)cc1
TGI [1]: 24 µM | TGI [2]: 23.4 µM | TGI [3]: 28.2 µM | TGI [4]: 28.9 µM | TGI [5]: 29 µM | TGI [6]: 29.6 µM | TGI [7]: 17.9 µM | TGI [8]: 23.6 µM | TGI [9]: 23.2 µM | TGI [10]: 24.1 µM

CCOC(=O)/C=C(/C=C\COC1CCCCO1)c1ccccc1 (stereo not given)
TGI [1]: 80.8 µM | TGI [2]: > 100 µM | TGI [3]: > 100 µM | TGI [4]: > 100 µM | TGI [5]: > 100 µM | TGI [6]: > 100 µM | TGI [7]: > 100 µM | TGI [8]: > 100 µM | TGI [9]: > 100 µM | TGI [10]: 96 µM

O=C1CS/C(=N/N=C/c2cn(Cc3ccc(Cl)cc3Cl)c3ccccc23)N1
TGI [1]: > 100 µM | TGI [2]: > 100 µM | TGI [3]: > 100 µM | TGI [4]: > 100 µM | TGI [5]: > 100 µM | TGI [6]: > 100 µM | TGI [7]: 76.8 µM | TGI [8]: > 100 µM | TGI [9]: > 100 µM | TGI [10]: 37.2 µM

COc1cc(OC)cc(Oc2nc3cc(F)c(F)cc3nc2-c2ccccc2)c1
TGI [1]: > 100 µM | TGI [2]: > 100 µM | TGI [3]: > 100 µM | TGI [4]: > 100 µM | TGI [5]: > 100 µM | TGI [6]: > 100 µM | TGI [7]: > 100 µM | TGI [8]: > 100 µM | TGI [9]: > 100 µM | TGI [10]: > 100 µM

COc1cc2[nH]c(=O)c3cc(-c4ccccc4)cc4c(Cl)nc(c1OC)c2c43
TGI [1]: > 100 µM | TGI [2]: > 65.1 µM | TGI [3]: 47.5 µM | TGI [4]: > 73.9 µM | TGI [5]: > 100 µM | TGI [6]: 38.5 µM | TGI [7]: > 100 µM | TGI [8]: 8.84 µM | TGI [9]: 71 µM | TGI [10]: 62.5 µM

C[N+]1(CCN=C=NC2CCCCC2)CCOCC1
TGI [1]: > 100 µM | TGI [2]: > 100 µM | TGI [3]: > 100 µM | TGI [4]: > 100 µM | TGI [5]: > 100 µM | TGI [6]: > 100 µM | TGI [7]: > 100 µM | TGI [8]: > 100 µM | TGI [9]: > 100 µM | TGI [10]: > 100 µM

CCCCN1C(=O)CC2[C@@H]3CCc4cc(OC)ccc4C3CC[C@]2(C)C1=O (stereo not given in full)
TGI [1]: > 10 µM | TGI [2]: > 10 µM | TGI [3]: > 10 µM | TGI [4]: > 10 µM | TGI [5]: > 10 µM | TGI [6]: > 10 µM | TGI [7]: > 10 µM | TGI [8]: > 10 µM | TGI [9]: > 10 µM | TGI [10]: > 10 µM

COc1ccc2c(c1)-c1c(c3cc(OC)ccc3n1CCN(C)C)CC2
TGI [1]: 28.1 µM | TGI [2]: 23.1 µM | TGI [3]: 29.6 µM | TGI [4]: 37.1 µM | TGI [5]: 29.9 µM | TGI [6]: 25.5 µM | TGI [7]: 25.9 µM | TGI [8]: 26.4 µM | TGI [9]: 28.8 µM | TGI [10]: 24.8 µM

Nc1c(S(N)(=O)=O)cc(S(N)(=O)=O)cc1S(N)(=O)=O
TGI [1]: > 100 µM | TGI [2]: > 100 µM | TGI [3]: > 100 µM | TGI [4]: > 100 µM | TGI [5]: > 100 µM | TGI [6]: > 100 µM | TGI [7]: > 100 µM | TGI [8]: > 100 µM | TGI [9]: > 100 µM | TGI [10]: > 100 µM

CC1(C)N=C(N)N=C(N)N1c1cccc(OCc2cccc(N)c2)c1
TGI [1]: > 100 µM | TGI [2]: > 100 µM | TGI [3]: > 100 µM | TGI [4]: > 100 µM | TGI [5]: > 100 µM | TGI [6]: > 100 µM | TGI [7]: > 100 µM | TGI [8]: > 100 µM | TGI [9]: > 100 µM | TGI [10]: > 100 µM

Cc1cc(S(=O)(=O)Nc2n[nH]c(Nc3ccccc3)n2)c(SCC(=O)O)cc1Cl
TGI [1]: > 100 µM | TGI [2]: > 100 µM | TGI [3]: > 100 µM | TGI [4]: > 100 µM | TGI [5]: > 100 µM | TGI [6]: > 100 µM | TGI [7]: > 100 µM | TGI [8]: > 100 µM | TGI [9]: > 100 µM | TGI [10]: > 100 µM

CC(=O)N(C)c1ccc(Nc2ccnc3ccc4nn(C)nc4c23)cc1
TGI [1]: 50 µM | TGI [2]: 29.2 µM | TGI [3]: 82.1 µM | TGI [4]: 47.6 µM | TGI [5]: 94.1 µM | TGI [6]: 45.2 µM | TGI [7]: > 100 µM | TGI [8]: > 100 µM | TGI [9]: 30.5 µM | TGI [10]: > 100 µM

CCN(CCCCCCCCCCN1CC(=O)N(CCCCCCCCCCN(CC)Cc2ccccc2OC)CC1=O)Cc1ccccc1OC
GI50 [1]: 1.18 µM | TGI [1]: 2.48 µM | GI50 [2]: 1.09 µM | TGI [2]: 3.25 µM | GI50 [3]: 1.81 µM | TGI [3]: 4.52 µM | GI50 [4]: 1.83 µM | TGI [4]: 3.68 µM | GI50 [5]: 3.36 µM | TGI [5]: 15.1 µM | GI50 [6]: 1.05 µM | TGI [6]: 2.52 µM | GI50 [7]: 1.14 µM | TGI [7]: 2.59 µM | GI50 [8]: 1.31 µM | TGI [8]: 2.96 µM | GI50 [9]: 1.57 µM | TGI [9]: 3.15 µM | GI50 [10]: 1.15 µM | TGI [10]: 2.58 µM

O=c1[nH]c(=O)n(C2CC(O)C(CO)O2)cc1OC/C=C/Cc1ccccc1 (stereo not given)
TGI [1]: > 100 µM | TGI [2]: > 100 µM | TGI [3]: > 100 µM | TGI [4]: > 100 µM | TGI [5]: > 100 µM | TGI [6]: > 100 µM | TGI [7]: > 100 µM | TGI [8]: > 100 µM | TGI [9]: > 100 µM | TGI [10]: > 100 µM

O=P1(C(O)/C=C/c2ccccc2)N(Cc2ccccc2)[C@@H]2CCCC[C@H]2N1Cc1ccccc1 (stereo not given in full)
TGI [1]: 27.8 µM | TGI [2]: 17.7 µM | TGI [3]: 21.5 µM | TGI [4]: > 100 µM | TGI [5]: 31.5 µM | TGI [6]: 6.26 µM | TGI [7]: 11.3 µM | TGI [8]: 15.1 µM | TGI [9]: 65.5 µM | TGI [10]: 16.5 µM

CCOc1snc(C(Cl)(Cl)Cl)c1Cl
TGI [1]: 37.8 µM | TGI [2]: 45.5 µM | TGI [3]: 44.3 µM | TGI [4]: > 100 µM | TGI [5]: > 100 µM | TGI [6]: 48.4 µM | TGI [7]: > 100 µM | TGI [8]: > 100 µM | TGI [9]: 83.7 µM | TGI [10]: > 100 µM

CCOc1ccc(N=Nc2ccc3cc(/C(C)=N/NC(=O)/C(C#N)=C\c4ccc(N(CCC#N)CCC#N)cc4)c(=O)oc3c2)cc1
TGI [1]: > 10 µM | TGI [2]: > 10 µM | TGI [3]: > 10 µM | TGI [4]: > 10 µM | TGI [5]: > 10 µM | TGI [6]: > 10 µM | TGI [7]: > 10 µM | TGI [8]: > 10 µM | TGI [9]: > 10 µM | TGI [10]: > 10 µM

NC(Cc1[nH]nc2ccccc12)C(=O)O (stereo not given)
TGI [1]: > 100 µM | TGI [2]: > 100 µM | TGI [3]: > 100 µM | TGI [4]: > 100 µM | TGI [5]: > 100 µM | TGI [6]: > 100 µM | TGI [7]: > 100 µM | TGI [8]: > 100 µM | TGI [9]: > 100 µM | TGI [10]: > 100 µM

O=C1/C(=C/c2ccc(Cl)cc2)CCCc2ccc(F)cc21
GI50 [1]: 16.9 µM | TGI [1]: 51.4 µM | GI50 [2]: 15.8 µM | TGI [2]: 35.9 µM | GI50 [3]: 36.7 µM | TGI [3]: > 100 µM | GI50 [4]: 24.7 µM | TGI [4]: 69.4 µM | GI50 [5]: 32.4 µM | TGI [5]: > 100 µM | GI50 [6]: 18.7 µM | TGI [6]: 56.3 µM | GI50 [7]: 15.9 µM | TGI [7]: 48.3 µM | GI50 [8]: 20.3 µM | TGI [8]: > 100 µM | GI50 [9]: 22.5 µM | TGI [9]: 64.5 µM | GI50 [10]: 13.4 µM | TGI [10]: 52.6 µM
